Reference: US7326732B2, “EP2 receptor agonists” (Pharmagene Laboratories Limited, priority 2004, dated 2008)

How the values were obtained:
[1] = molecular target: T1, human EP2 prostanoid receptors (Homo sapiens, UniProt P43116); assay: Agonist activity at recombinant human EP2 prostanoid receptors (cAMP in HEK-293 clones); format: cell-based; conditions: for EC50: HEK-293 stably transfected with human EP2, cAMP accumulation, read-out: pEC50 EP2 (converted); for activity (EP2 part): functional classification at EP2
T1 construct: expressed in transfected cells; host or cells: HEK-293
T1 sequence (P43116 whole entry): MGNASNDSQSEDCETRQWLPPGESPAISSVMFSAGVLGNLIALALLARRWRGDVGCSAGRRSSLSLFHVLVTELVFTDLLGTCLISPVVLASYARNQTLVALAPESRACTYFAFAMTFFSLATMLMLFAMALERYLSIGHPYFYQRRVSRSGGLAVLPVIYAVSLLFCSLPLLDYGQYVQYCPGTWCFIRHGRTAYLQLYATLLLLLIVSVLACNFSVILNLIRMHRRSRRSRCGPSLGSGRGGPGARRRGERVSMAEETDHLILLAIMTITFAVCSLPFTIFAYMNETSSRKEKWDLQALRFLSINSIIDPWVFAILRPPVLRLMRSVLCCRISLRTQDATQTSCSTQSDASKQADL
Method: Culture media was Minimal essential media (MEM), supplemented with 10% foetal bovine serum, 100 U/ml penicillin, […] streptomycin, 2.5 μg/ml fungizone, 2mM glutamine. Cells were cultured to confluency (3-4 days) prior to use. Culture media was removed, and confluent cells washed three times in MEM. […] Cells were then stimulated by the addition of 25 μl of PGE2 or agonists prepared in assay buffer. In antagonist studies, cells were pre-incubated with compounds for 30 minutes prior to PGE2-mediated stimulation Plates were incubated for 15 min at 37° C., before termination of the reaction by the addition of 25 μl 1M HCl. The plate was then frozen at -20° C. overnight before determination of cAMP concentration. Stimulated cAMP levels were determined by radioligand displacement binding. In brief, plates were thawed rapidly in a waterbath, and the samples neutralised by the addition of 25 μl 1M NaOH. 30 μl was transferred to Millipore plates pre-coated with 0.5% Polyethylenimine (PEI). Samples were diluted by addition of 90 μl cAMP determination buffer (50 mM Tris, 5 mM EDTA, pH 7.0). […] 15 μl of 2 nM (final concentration) [^3H] cAMP, and 15 μl of 3'5'-cAMP protein kinase (8 μg/well final concentration) prepared in cAMP determination buffer containing 0.1% BSA, were added to each well. Plates were incubated on ice for 2 hours, before bound and free radiolabel were separated by vacuum filtration harvesting using the Millipore vacuum manifold, using ice cold water as the termination buffer. The sealing mat was removed from the Millipore plates, and the filters allowed to dry overnight. 50 μl Microscint 0 (Packard Bioscience) was added to each well, and the plate counted using the Micro-Beta Trilux topcount ^3H program. cAMP accumulation was determined from the standard curve, and values calculated in pmoles cAMP/well. Antagonists affinities (pA2 values) were determined assuming a slope of unity and the […]-Schild equation, where pA2=log [concentration ratio-1]-log[antagonist].

human EP2 receptor = molecular target: T2, human EP2 receptor (Homo sapiens, UniProt P43116); assay: Binding ability to human EP receptors ([3H]PGE2 displacement), EP2; conditions: membranes expressing human EP2; [3H]PGE2 3 nM; Cheng-Prusoff; read-out: pKi (M) EP2 (converted)
T2 construct: expressed in transfected cells
T2 sequence (P43116 whole entry): as above
Method: (§1) Membranes were prepared from cells stably transfected with human EP receptor cDNA. In brief, cells were cultured to confluency, scraped from culture flasks, and centrifuged (800 g, 8 minutes, 4° C.). Cells were twice washed in ice cold homogenisation buffer containing 10 mMTris-HCl, 1 mM EDTA.2Na, 250 mM sucrose, 1 mM PMSF, 0.3 mM indomethacin, pH 7.4, homogenised and re-centrifuged as before. The supernatant was stored on ice and pellets re-homogenised and re-spun. Supernatants were pooled and centrifuged at 40000 g, 10 minutes, 4° C. Resultant membrane pellets were stored at −80° C. until use. For assay, membranes expressing human EP4, EP3, EP2 or EP1 receptors were incubated in Millipore (MHVBN45) plates containing assay buffer, radiolabelled [^3H]PGE2 and 0.1 to 10 000 nM concentrations of compounds. Incubations were performed at suitable temperatures and for suitable times to allow equilibrium to be reached. Non-specific binding was determined in the presence of 10 uM PGE2. Bound and free radiolabel was separated by vacuum manifold filtration using appropriate wash buffers, and bound radiolabel was determined by scintillation counting. Constituents of each of the buffers are included in table 1 below. […] Raven Press, New York, 2nd edition.

human EP3 receptor = molecular target: T3, human EP3 receptor (Homo sapiens, UniProt P43115); assay: Binding ability to human EP receptors ([3H]PGE2 displacement), EP3; conditions: membranes expressing human EP3; [3H]PGE2 2.5 nM; Cheng-Prusoff; read-out: pKi (M) EP3 (converted)
T3 construct: expressed in transfected cells
T3 sequence (P43115 1-390): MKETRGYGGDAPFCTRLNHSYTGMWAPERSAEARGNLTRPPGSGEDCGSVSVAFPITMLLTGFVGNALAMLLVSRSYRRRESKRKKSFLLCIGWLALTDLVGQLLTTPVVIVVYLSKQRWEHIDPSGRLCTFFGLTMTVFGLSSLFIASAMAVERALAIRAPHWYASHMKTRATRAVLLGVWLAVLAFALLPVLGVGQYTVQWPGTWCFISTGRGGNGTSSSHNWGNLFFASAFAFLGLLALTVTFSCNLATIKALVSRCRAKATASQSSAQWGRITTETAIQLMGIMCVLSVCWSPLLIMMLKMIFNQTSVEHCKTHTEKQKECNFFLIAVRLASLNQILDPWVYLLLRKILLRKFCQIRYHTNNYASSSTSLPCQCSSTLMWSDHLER
Method: as §1

human EP4 receptor = molecular target: T4, human EP4 receptor (Homo sapiens, UniProt P35408); assay: Binding ability to human EP receptors ([3H]PGE2 displacement), EP4; conditions: membranes expressing human EP4; [3H]PGE2 1 nM; Cheng-Prusoff; read-out: pKi (M) EP4 (converted)
T4 construct: expressed in transfected cells
T4 sequence (P35408 whole entry): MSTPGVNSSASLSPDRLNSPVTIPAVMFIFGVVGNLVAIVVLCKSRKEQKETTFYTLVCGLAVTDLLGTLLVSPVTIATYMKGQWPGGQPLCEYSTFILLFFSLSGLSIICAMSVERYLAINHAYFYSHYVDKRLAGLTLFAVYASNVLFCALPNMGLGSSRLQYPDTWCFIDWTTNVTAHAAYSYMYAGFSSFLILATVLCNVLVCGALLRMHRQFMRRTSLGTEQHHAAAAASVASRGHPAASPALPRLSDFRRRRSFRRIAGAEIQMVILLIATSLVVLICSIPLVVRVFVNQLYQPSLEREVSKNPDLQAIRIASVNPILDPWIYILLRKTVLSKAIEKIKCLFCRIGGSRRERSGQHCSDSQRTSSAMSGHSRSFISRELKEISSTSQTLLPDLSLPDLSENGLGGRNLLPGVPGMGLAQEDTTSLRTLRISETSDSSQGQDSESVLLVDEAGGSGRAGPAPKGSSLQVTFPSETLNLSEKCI
Method: as §1

O=C(O)Cc1cccc(NC(=O)c2ccc(-c3ccccc3)o2)c1 [Compound 10, (3-{[5-(phenyl)-furan-2-carbonyl]-amino}-phenyl)-acetic acid]
EC50 [1]: < 1000 nM | activity (EP2 part) [1]: EP2 agonist | Ki (human EP2 receptor): < 1e-06 M | Ki (human EP3 receptor): > 1e-05 M | Ki (human EP4 receptor): > 1e-05 M

COc1ccc(-c2ccc(C(=O)Nc3cccc(CC(=O)O)c3)o2)cc1 [Compound 12, (3-[(5-(4-Methoxy-phenyl)-furan-2-carbonyl)-amino]-phenyl)-acetic acid]
EC50 [1]: < 1000 nM | activity (EP2 part) [1]: EP2 agonist | Ki (human EP2 receptor): < 1e-06 M | Ki (human EP3 receptor): > 1e-05 M | Ki (human EP4 receptor): > 1e-05 M

CN(C)c1ccc(-c2ccc(C(=O)Nc3cccc(CC(=O)O)c3)o2)cc1 [Compound 14, (3-[(5-(4-Dimethylamino-phenyl)-furan-2-carbonyl)-amino]-phenyl)-acetic acid]
EC50 [1]: < 10000 nM | activity (EP2 part) [1]: EP2 agonist | Ki (human EP2 receptor): < 1e-06 M | Ki (human EP3 receptor): > 1e-05 M | Ki (human EP4 receptor): > 1e-05 M

COc1ccccc1-c1ccc(C(=O)Nc2cccc(CC(=O)O)c2)o1 [Compound 17, (3-{[5-(2-Methoxy-phenyl)-furan-2-carbonyl]-amino}-phenyl)-acetic acid]
EC50 [1]: < 1000 nM | activity (EP2 part) [1]: EP2 agonist | Ki (human EP2 receptor): < 1e-06 M | Ki (human EP3 receptor): > 1e-05 M | Ki (human EP4 receptor): > 1e-05 M

COc1cccc(-c2ccc(C(=O)Nc3cccc(CC(=O)O)c3)o2)c1 [Compound 18, (3-{[5-(3-Methoxy-phenyl)-furan-2-carbonyl]-amino}-phenyl)-acetic acid]
EC50 [1]: < 1000 nM | activity (EP2 part) [1]: EP2 agonist | Ki (human EP2 receptor): < 1e-06 M | Ki (human EP3 receptor): > 1e-05 M | Ki (human EP4 receptor): > 1e-05 M

CC(=O)c1cccc(-c2ccc(C(=O)Nc3cccc(CC(=O)O)c3)o2)c1 [Compound 19, (3-{[5-(3-Acetyl-phenyl)-furan-2-carbonyl]-amino}-phenyl)-acetic acid]
EC50 [1]: < 10000 nM | activity (EP2 part) [1]: EP2 agonist | Ki (human EP2 receptor): < 1e-06 M | Ki (human EP3 receptor): > 1e-05 M | Ki (human EP4 receptor): > 1e-05 M

CC(=O)c1ccc(-c2ccc(C(=O)Nc3cccc(CC(=O)O)c3)o2)cc1 [Compound 20, (3-{[5-(4-Acetyl-phenyl)-furan-2-carbonyl]-amino}-phenyl)-acetic acid]
EC50 [1]: < 10000 nM | activity (EP2 part) [1]: EP2 agonist | Ki (human EP2 receptor): < 1e-06 M | Ki (human EP3 receptor): > 1e-05 M | Ki (human EP4 receptor): > 1e-05 M

Cc1cccc(-c2ccc(C(=O)Nc3cccc(CC(=O)O)c3)o2)c1 [Compound 21, (3-{[5-(3-Methyl-phenyl)-furan-2-carbonyl]-amino}-phenyl)-acetic acid]
EC50 [1]: < 1000 nM | activity (EP2 part) [1]: EP2 agonist | Ki (human EP2 receptor): < 1e-06 M | Ki (human EP3 receptor): > 1e-05 M | Ki (human EP4 receptor): > 1e-05 M

O=C(O)Cc1cccc(NC(=O)c2ccc(-c3ccc(Cl)c(Cl)c3)o2)c1 [Compound 27, (3-{[5-(3,4-Dichloro-phenyl)-furan-2-carbonyl]-amino}-phenyl)-acetic acid]
EC50 [1]: < 100 nM | activity (EP2 part) [1]: EP2 agonist | Ki (human EP2 receptor): < 1e-07 M | Ki (human EP3 receptor): > 1e-05 M | Ki (human EP4 receptor): > 1e-05 M

O=C(O)Cc1cccc(NC(=O)c2ccc(-c3ccccc3Cl)o2)c1 [Compound 30, (3-{[5-(2-Chloro-phenyl)-furan-2-carbonyl]-amino}-phenyl)-acetic acid]
EC50 [1]: < 1000 nM | activity (EP2 part) [1]: EP2 Agonist | Ki (human EP2 receptor): < 1e-05 M | Ki (human EP3 receptor): > 1e-05 M | Ki (human EP4 receptor): > 1e-05 M

O=C(O)Cc1cccc(NC(=O)c2ccc(-c3cccc4ccccc34)o2)c1 [Compound 31, {3-[(5-Naphthalen-1-yl-furan-2-carbonyl)-amino]-phenyl}-acetic acid]
EC50 [1]: < 1000 nM | activity (EP2 part) [1]: EP2 agonist | Ki (human EP2 receptor): < 1e-06 M | Ki (human EP3 receptor): > 1e-05 M | Ki (human EP4 receptor): < 1e-06 M

CC(C)c1cccc(-c2ccc(C(=O)Nc3cccc(CC(=O)O)c3)o2)c1 [Compound 34, (3-{[5-(3-Isopropyl-phenyl)-furan-2-carbonyl]-amino}-phenyl)-acetic acid]
EC50 [1]: < 1000 nM | activity (EP2 part) [1]: EP2 agonist | Ki (human EP2 receptor): < 1e-06 M | Ki (human EP3 receptor): > 1e-05 M | Ki (human EP4 receptor): < 1e-06 M

O=C(O)Cc1cccc(NC(=O)c2ccc(-c3ccc4c(c3)OCO4)o2)c1 [Compound 36, {3-[(5-Benzo[1,3]dioxol-5-yl-furan-2-carbonyl)-amino]-phenyl}-acetic acid]
EC50 [1]: < 100 nM | activity (EP2 part) [1]: EP2 agonist | Ki (human EP2 receptor): < 1e-06 M | Ki (human EP3 receptor): > 1e-05 M | Ki (human EP4 receptor): > 1e-05 M

O=C(O)Cc1cccc(NC(=O)c2ccc(-c3cccc(Cl)c3Cl)o2)c1 [Compound 37, (3-{[5-(2,3-Dichloro-phenyl)-furan-2-carbonyl]-amino}-phenyl)-acetic acid]
EC50 [1]: < 1000 nM | activity (EP2 part) [1]: EP2 agonist | Ki (human EP2 receptor): < 1e-06 M | Ki (human EP3 receptor): > 1e-05 M | Ki (human EP4 receptor): > 1e-05 M

O=C(O)Cc1cccc(NC(=O)c2ccc(-c3cccc(Cl)c3)o2)c1 [Compound 39, (3-{[5-(3-Chloro-phenyl)-furan-2-carbonyl]-amino}-phenyl)-acetic acid]
EC50 [1]: < 100 nM | activity (EP2 part) [1]: EP2 agonist | Ki (human EP2 receptor): < 1e-07 M | Ki (human EP3 receptor): > 1e-05 M | Ki (human EP4 receptor): > 1e-05 M

O=C(O)Cc1cccc(NC(=O)c2ccc(-c3ccc(Cl)cc3)o2)c1 [Compound 40, (3-{[5-(4-Chloro-phenyl)-furan-2-carbonyl]-amino}-phenyl)-acetic acid]
EC50 [1]: < 100 nM | activity (EP2 part) [1]: EP2 agonist | Ki (human EP2 receptor): < 1e-06 M | Ki (human EP3 receptor): > 1e-05 M | Ki (human EP4 receptor): > 1e-05 M

O=C(O)/C=C/c1cccc(SCc2csc(-c3ccccc3)n2)c1 [Compound 122, 3-[3-(2-Phenyl-thiazol-4-ylmethylsulfanyl)-phenyl]-acrylic acid]
Ki (human EP2 receptor): < 1e-07 M | Ki (human EP3 receptor): > 1e-05 M | Ki (human EP4 receptor): < 1e-06 M

O=C(O)/C=C/c1cccc(NC(=O)c2ccc(C34CC5CC(CC(C5)C3)C4)o2)c1 [Compound 123, 3-{3-[(5-Adamantan-1-yl-furan-2-carbonyl)-amino]-phenyl}-acrylic acid]
Ki (human EP2 receptor): < 1e-06 M | Ki (human EP3 receptor): > 1e-05 M | Ki (human EP4 receptor): > 1e-05 M

O=C(Nc1cccc(OCc2nnn[nH]2)c1)c1cccc(-c2ccccc2)n1 [Compound 174, 6-Phenyl-pyridine-2-carboxylic acid [3-(1H-tetrazol-5-ylmethoxy)-phenyl]-amide]
Ki (human EP2 receptor): < 1e-07 M | Ki (human EP3 receptor): > 1e-05 M | Ki (human EP4 receptor): < 1e-06 M

O=C(Nc1cccc(/C=C/c2nnn[nH]2)c1)c1cccc(-c2ccccc2)n1 [Compound 175, 6-Phenyl-pyridine-2-carboxylic acid {3-[2-(1H-tetrazol-5-yl)-vinyl]phenyl}-amide]
Ki (human EP2 receptor): < 1e-07 M | Ki (human EP3 receptor): > 1e-05 M | Ki (human EP4 receptor): < 1e-07 M

O=C(Nc1cccc(/C=C/c2nnn[nH]2)c1)c1cc(-c2ccccc2)ccc1F [Compound 176, 4-Fluoro-biphenyl-3-carboxylic acid {3-[2-(1H-tetrazol-5-yl)-vinyl]phenyl}-amide]
Ki (human EP2 receptor): < 1e-07 M | Ki (human EP3 receptor): > 1e-05 M | Ki (human EP4 receptor): > 1e-05 M
